Series [1] in a line: Cytotoxicity against human HepG2.2.15 cells assessed as reduction in cell viability by CellTiter-Glo reagent based assay. Type of series: toxicity, HepG2 2.2.15. Background: In ATP-based viability assays light output follows the ATP content of the culture.
Series [2] has as its system Hepatitis B virus. The series can be described thus: Antiviral activity against Hepatitis B virus infected in human HepG2.2.15 cells. Type of series: functional, organism-based.
A short description of series [3]: AUC (0 to infinity) in ICR mouse at 50 mg/kg, po. Type of series: ADME, organism-based. Also noted: route oral, time infinity, dose 50 mg/kg. The conditions noted are these: in vivo.
Series [4] in a line: Tmax in ICR mouse at 50 mg/kg, po. In kind it is ADME, organism-based. The conditions noted are these: in vivo.
The nature of series [5]: Cmax in ICR mouse at 50 mg/kg, po. Type of series: ADME, organism-based. Set-up: route oral, dose 50 mg/kg. As to conditions: in vivo.
Series [6] in a line: Half life in ICR mouse at 50 mg/kg, po. The conditions noted are these: in vivo. In kind it is ADME, organism-based.

Experimental findings from ChEMBL document CHEMBL5046226, “Identification of (6S)-cyclopropyl-6,7-dihydropyrazolo[1,5-a]pyrazine-5(4H)-carboxamines as new HBV capsid assembly modulators” (Eur J Med Chem, 2022) are described below.

pEC50: −log10 of the molar value.

As usually defined, the CC50 is the concentration that lowers cell viability or growth by half. A word on the pEC50: it is −log10 of the EC50, conventionally taken in molar units. A higher pEC50 goes with a small EC50. Turning to `O=C1CC(C(F)(F)F)CN1c1cnn2c1CN(C(=O)Nc1cc(F)c(F)c(F)c1)C(C1CC1)C2` (centres undefined), the 50% cytotoxic concentration (CC50) in series [1] came out at 115000 nM. This molecule also gave a pEC50 in series [2] of 7.47.

As usually defined, the AUC(0-inf) is total exposure, with the tail of the curve extrapolated. A high value points to more exposure. One may read the Tmax as the time at which the peak concentration occurs. As a reminder, the Cmax is the peak of the concentration-time curve. Broadly, the half-life is how long it takes for the measured level to halve. A lower half-life goes with rapid decline. In series [3], `Cc1nc(C2CC(=O)N(c3cnn4c3CN(C(=O)Nc3cc(F)c(F)c(F)c3)C(C3CC3)C4)C2)no1` (centres undefined) had an area under the curve AUC(0-inf) of 3860 ng·h/mL. Besides, in series [4], the time to peak (Tmax) was 19.8 min. The molecule also returned a Cmax in series [5] of 3860 ng/mL. Further, the 50% cytotoxic concentration (CC50) in series [1] is more than 200000 nM. Besides, in series [6], the half-life is 202 min. This molecule also gave a pEC50 in series [2] of 7.80.

For the molecule `O=C1CC(c2ccccc2)CN1c1cnn2c1CN(C(=O)Nc1cc(F)c(F)c(F)c1)C1CCCCC12` (centres undefined), the 50% cytotoxic concentration (CC50) in series [1] worked out at 21400 nM. Also, the pEC50 in series [2] is 7.57.

`N#CC1CC(=O)N(c2cnn3c2CN(C(=O)Nc2cc(F)c(F)c(F)c2)C(C2CC2)C3)C1` (centres undefined) had an AUC(0-inf) in series [3] of 10600 ng·h/mL. For the same molecule, in series [4], the time to peak (Tmax) turned out to be 15 min. The molecule also yielded a peak concentration (Cmax) in series [5] of 6400 ng/mL. Besides, the CC50 in series [1] was more than 200000 nM. This molecule also had a half-life in series [6] of 278 min. For the same molecule, the negative logarithm of the EC50 (pEC50) in series [2] was 7.92.

Take `Cc1cnc(C2CC(=O)N(c3cnn4c3CN(C(=O)Nc3cc(F)c(F)c(F)c3)C(C3CC3)C4)C2)s1` (centres undefined): the CC50 in series [1] stood at 96200 nM. The same molecule had a negative-log EC50 (pEC50) in series [2] of 7.74.

As for `O=C1CC(c2ncccn2)CN1c1cnn2c1CN(C(=O)Nc1cc(F)c(F)c(F)c1)C(C1CC1)C2` (centres undefined), the total exposure AUC(0-inf) in series [3] is 5070 ng·h/mL. In series [4], the time of peak concentration (Tmax) was 15 min. Moreover, the concentration in series [5] peaked (Cmax) at 5980 ng/mL. Moreover, the CC50 in series [1] was more than 200000 nM. This molecule gave a half-life in series [6] of 52.2 min. This molecule also showed a pEC50 in series [2] of 7.82.

With `C[C@H]1Cn2ncc(N3CC(c4ccccc4)CC3=O)c2CN1CC(=O)Nc1cc(F)c(F)c(F)c1` (some centres undefined), the CC50 in series [1] is more than 2000 nM. This molecule also gave a pEC50 in series [2] of less than 5.70.

`O=C1CC(c2cnco2)CN1c1cnn2c1CN(C(=O)Nc1cc(F)c(F)c(F)c1)C(C1CC1)C2` (centres undefined): in series [1], the CC50 was found to be 139000 nM. The pEC50 in series [2] is 7.80.

For `O=C1OC(c2ccc(F)cc2)CN1c1cnn2c1CN(C(=O)Nc1cc(F)c(F)c(F)c1)C(C1CC1)C2` (centres undefined), the half-maximal cytotoxic concentration (CC50) in series [1] came out at 3560 nM. Further, the pEC50 in series [2] is 7.96.

As to `CC1CN(C(=O)Nc2cc(F)c(F)c(F)c2)Cc2c(N3CC(C#N)CC3=O)cnn21` (centres undefined), the CC50 in series [1] amounted to 115000 nM. Also, the negative logarithm of the EC50 (pEC50) in series [2] is 7.21.

Regarding `O=C(Nc1cc(F)c(F)c(F)c1)N1CCCn2ncc(N3CC(c4ccccc4)CC3=O)c2C1` (centres undefined), the CC50 in series [1] was more than 2000 nM. This molecule gave a negative-log EC50 (pEC50) in series [2] of less than 5.70.

Turning to `O=C1CC(c2cnc(C(F)(F)F)s2)CN1c1cnn2c1CN(C(=O)Nc1cc(F)c(F)c(F)c1)C(C1CC1)C2` (centres undefined), the CC50 in series [1] came to 38500 nM. In series [2], this molecule showed a negative logarithm of the EC50 (pEC50) of 7.57.

As for `CC1CCn2ncc(N3CC(c4ccccc4)CC3=O)c2CN1C(=O)Nc1cc(F)c(F)c(F)c1` (centres undefined), the 50% cytotoxic concentration (CC50) in series [1] is more than 2000 nM. In series [2], this molecule had a pEC50 of less than 5.70.

Take `CC1(C)CC(=O)N(c2cnn3c2CN(C(=O)Nc2cc(F)c(F)c(F)c2)C(C2CC2)C3)C1` (centres undefined): the CC50 in series [1] is 115000 nM. The pEC50 in series [2] is 7.70.

As to `O=C1CC(c2ccccc2)CN1c1cnn2c1CN(C(=O)Nc1cc(F)c(F)c(F)c1)C(Cc1ccccc1)C2` (centres undefined), the CC50 in series [1] is more than 2000 nM. In series [2], the negative logarithm of the EC50 (pEC50) is less than 5.70.

For `O=C1CC(c2ccccc2)CN1c1cnn2c1CN(C(=O)Nc1cc(F)c(F)c(F)c1)C(C1CC1)C2` (centres undefined), in series [1], the CC50 was found to be 12800 nM. Moreover, the negative-log EC50 (pEC50) in series [2] is 8.22.

Take `O=C1CC(c2ncc(F)cn2)CN1c1cnn2c1CN(C(=O)Nc1cc(F)c(F)c(F)c1)C(C1CC1)C2` (centres undefined): the CC50 in series [1] turned out to be 115000 nM. The pEC50 in series [2] was 7.70.

Take `O=C1c2ccccc2CN1c1cnn2c1CN(C(=O)Nc1cc(F)c(F)c(F)c1)C(C1CC1)C2` (centres undefined): the half-maximal cytotoxic concentration (CC50) in series [1] stood at 38500 nM. For the same molecule, the negative-log EC50 (pEC50) in series [2] is 7.08.

Turning to `CC1(C)CN(C(=O)Nc2cc(F)c(F)c(F)c2)Cc2c(N3CC(C#N)CC3=O)cnn21` (centres undefined), in series [1], the 50% cytotoxic concentration (CC50) is more than 200000 nM. The molecule also showed a negative-log EC50 (pEC50) in series [2] of 7.42.

For `O=C1CC(Oc2ncc(F)cn2)CN1c1cnn2c1CN(C(=O)Nc1cc(F)c(F)c(F)c1)C(C1CC1)C2` (centres undefined), the half-maximal cytotoxic concentration (CC50) in series [1] was determined as 96200 nM. In series [2], the negative-log EC50 (pEC50) is 8.05.

Take `N#CC1CC(=O)N(c2cnn3c2CN(C(=O)Nc2cc(F)c(F)c(F)c2)C2(CC2)C3)C1` (centres undefined): the CC50 in series [1] is more than 200000 nM. The molecule further gave a pEC50 in series [2] of 6.91.

On to `C[C@H]1Cn2ncc(N3CC(c4ccccc4)CC3=O)c2CN1S(=O)(=O)Nc1cc(F)c(F)c(F)c1` (some centres undefined), for which the CC50 in series [1] is more than 2000 nM. This molecule had a negative-log EC50 (pEC50) in series [2] of less than 5.70.

As to `C[C@H]1Cn2ncc(N3CC(c4ccccc4)CC3=O)c2CN1C(=S)Nc1cc(F)c(F)c(F)c1` (some centres undefined), the half-maximal cytotoxic concentration (CC50) in series [1] was more than 2000 nM. The pEC50 in series [2] is less than 5.70.

Molecule `O=C1CC(c2ncco2)CN1c1cnn2c1CN(C(=O)Nc1cc(F)c(F)c(F)c1)C(C1CC1)C2` (centres undefined) showed a total exposure AUC(0-inf) in series [3] of 12200 ng·h/mL. Moreover, the Tmax in series [4] is 15 min. In series [5], this molecule registered a Cmax of 8740 ng/mL. Besides, the CC50 in series [1] is more than 200000 nM. The half-life in series [6] is 222 min. The molecule also had a pEC50 in series [2] of 8.05.

As to `O=C1CC(c2ccc(F)cc2)CN1c1cnn2c1CN(C(=O)Nc1cc(F)c(F)c(F)c1)C(C1CC1)C2` (centres undefined), in series [1], the CC50 came to 32000 nM. Besides, the pEC50 in series [2] is 7.64.

Take `O=C1CC(Oc2ncccn2)CN1c1cnn2c1CN(C(=O)Nc1cc(F)c(F)c(F)c1)C(C1CC1)C2` (centres undefined): in series [3], the AUC(0-inf) amounted to 4020 ng·h/mL. Moreover, the Tmax in series [4] is 15 min. In series [5], this molecule showed a Cmax of 5270 ng/mL. Moreover, the CC50 in series [1] was more than 200000 nM. In series [6], this molecule showed a half-life of 57 min. In addition, the pEC50 in series [2] was 7.80.

Regarding `O=C1CC(c2nccs2)CN1c1cnn2c1CN(C(=O)Nc1cc(F)c(F)c(F)c1)C(C1CC1)C2` (centres undefined), the CC50 in series [1] was 115000 nM. The molecule further gave a pEC50 in series [2] of 7.96.

In the case of `O=C(Nc1cc(F)c(F)c(F)c1)N1Cc2c(-c3ccc(F)cc3F)cnn2CC1C1CC1` (centres undefined), in series [1], the CC50 worked out at 32000 nM. In series [2], this molecule gave a pEC50 of 7.64.

In the case of `C[C@H]1Cn2ncc(N3CC(c4ccccc4)CC3=O)c2CN1C(=O)NCc1cc(F)c(F)c(F)c1` (some centres undefined), the CC50 in series [1] is more than 2000 nM. Further, the negative logarithm of the EC50 (pEC50) in series [2] was less than 5.70.

As for `O=C1NC(c2ccccc2)CN1c1cnn2c1CN(C(=O)Nc1cc(F)c(F)c(F)c1)C(C1CC1)C2` (centres undefined), the cytotoxic concentration (CC50) in series [1] was determined as 38500 nM. In series [2], this molecule had a pEC50 of 8.52.

On to `O=C1CC(c2ccc(F)cn2)CN1c1cnn2c1CN(C(=O)Nc1cc(F)c(F)c(F)c1)C(C1CC1)C2` (centres undefined), for which the CC50 in series [1] was 38500 nM. The molecule further showed a pEC50 in series [2] of 7.82.

`C[C@H]1Cn2ncc(N3CC(c4ccccc4)CC3=O)c2CN1C(=O)Nc1cc(F)c(F)c(F)c1` (some centres undefined) displayed an AUC(0-inf) in series [3] of 6510 ng·h/mL. For the same molecule, the time of peak concentration (Tmax) in series [4] is 15 min. This molecule showed a Cmax in series [5] of 3130 ng/mL. In addition, in series [1], the CC50 amounted to 12800 nM. Further, the half-life in series [6] is 136 min. Further, the negative logarithm of the EC50 (pEC50) in series [2] was 8.05.

As for `O=C1CC(c2ccccn2)CN1c1cnn2c1CN(C(=O)Nc1cc(F)c(F)c(F)c1)C(C1CC1)C2` (centres undefined), in series [1], the CC50 turned out to be 96200 nM. In addition, the negative logarithm of the EC50 (pEC50) in series [2] is 7.92.

Turning to `O=C(Nc1cc(F)c(F)c(F)c1)N1Cc2c(-c3ccc(F)cc3)cnn2CC1C1CC1` (centres undefined), the CC50 in series [1] came to 38500 nM. The molecule further gave a pEC50 in series [2] of 8.40.

`O=C1OC(c2ccccc2)CN1c1cnn2c1CN(C(=O)Nc1cc(F)c(F)c(F)c1)C(C1CC1)C2` (centres undefined): in series [1], the CC50 turned out to be 7410 nM. In series [2], this molecule showed a negative logarithm of the EC50 (pEC50) of 7.74.
